Measured values taken from PMC10060354, “Discovery of a small molecule ligand of FRS2 that inhibits invasion and tumor growth” (Cellular Oncology, 2022).
pEC50: −log10 of the molar value. Like-named read-outs stand apart in the source and are kept apart here.

Key:
DAOY cells = experiment: Spheroid invasion assay (SIA), bFGF-induced collagen I invasion; assay type: cell-based, human
Method in brief: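 Spheroids formed over 24–72 h were embedded in collagen I (final 1.75 mg/ml) and stimulated with bFGF (100 ng/ml unless stated), HGF 30 ng/ml or EGF 20 ng/ml with compound in DMSO. Invasion distance was quantified 24–48 h after embedding.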

[1] = Semi-thermodynamic solubility; assay type: physicochemical; conditions: for solubility: Room Temp, Overnight, LC-MSMS
Method in brief: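 Compound solution agitated overnight at ambient temperature, then centrifuged twice (30 min, 3000 rpm, RT). Supernatant diluted in 50% methanol/water with internal standard and quantified by LC–MS/MS. Solubility derived from a linear or quadratic fit of the standard curve.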

[2] = Microsomal metabolic stability; assay type: in vitro ADME; conditions: human, pooled liver microsomes; for half-life at 1 µM: pH 7.4, liver microsomes
Method in brief: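 Pooled liver microsomes were incubated with NADPH for 0, 5, 15, 30 and 45 min; the minus-NADPH control (0.1 M phosphate pH 7.4) ran 45 min only. Reactions were stopped in acetonitrile and analysed by LC–MS/MS. t1/2 = 0.693/k came from the ln peak-area-ratio versus time slope, and CLint (μl/min/mg protein) was derived from it.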

[3] = CaCo-2 permeability (bi-directional); conditions: human
Method in brief: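 Caco-2 monolayers (passage 40–60) cultured 20 days on Transwells, equilibrated 40 min in HBSS; compound dosed apically (A-B) or basolaterally (B-A) with 1% v/v DMSO and lucifer yellow integrity marker, in duplicate. LC–MS/MS quantification; Papp from permeation rate, C0 and monolayer area; efflux ratio = Papp(B-A)/Papp(A-B).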

[4] = tested on: HepG2 human hepatocellular carcinoma cells; experiment: Cell viability (cytotoxicity, MTT) using HepG2; assay type: cell-based
Method in brief: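 Compounds were tested at 8 concentrations in triplicate on HepG2 cells plated 24 h beforehand, with 72 h exposure in 1% DMSO medium. MTT was loaded 1 h before the end, solubilized in DMSO and read at 570 nm. Minimum effective concentration is the lowest concentration exceeding the significance level, given dose-response or two consecutive points above it.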

pEC50 (DAOY cells; Homo sapiens, Daoy, DAOY cells, n = 3 technical replicas, read-out: EC50 for the inhibition of bFGF-induced collagen I invasion): 4.74
solubility ([1]; PBS, aqueous buffer, thermodynamic from solid, read-out: Mean Solubility): > 100 µM
solubility ([1]; PBS, aqueous buffer, thermodynamic from solid, read-out: Solubility Replicate 1): > 100 µM
solubility ([1]; PBS, aqueous buffer, thermodynamic from solid, read-out: Solubility Replicate 2): > 100 µM
solubility ([1]; PBS, aqueous buffer, thermodynamic from solid, read-out: Solubility Replicate 3): > 100 µM
solubility ([1]; PBS, aqueous buffer, thermodynamic from solid, read-out: Solubility Replicate 4): > 100 µM
solubility (result in words) ([1]; Supplementary Table 2): freely soluble
solubility thermodynamic ([1]; aqueous buffer, thermodynamic from solid, PBS, overnight, summary sheet): > 100 µM
Solubility (class in words) ([1]; summary sheet): Freely
half-life at 1 µM ([2]; read-out: t1/2): 5.52 min
half-life at 1 µM ([2]; read-out: t1/2 of clearance (CL1/2), in vitro): 5.52 min
microsomal CLint at 1 µM ([2]; pH 7.4, read-out: Metabolic stability - Intrinsic clearance (CI)): 251 µL/min/mg
efflux ratio at 120 min, 10 μM ([3]; Caco-2): 5.13
Papp A→B at 120 min, 10 μM ([3]; Caco-2, Mean Papp A-B, Caco-2, summary sheet): 4.53 ×10⁻⁶ cm/s
Papp B→A at 120 min, 10 μM ([3]; Caco-2, Mean Papp B-A, Caco-2, summary sheet): 23.2 ×10⁻⁶ cm/s
efflux ratio at 120 min, 10 μM ([3]; Caco-2, pH 7.4): 5.13
recovery at 120 min, 10 µM ([3]; Caco-2, pH 7.4, Mean % Recovery A2B, HBSS/HBSS, pH 7.4/7.4): 102%
recovery at 120 min, 10 µM ([3]; Caco-2, pH 7.4, Mean % Recovery B2A, HBSS/HBSS, pH 7.4/7.4): 65.6%
Papp A→B at 120 min, 10 μM ([3]; Caco-2, pH 7.4, Mean Papp A2B, HBSS/HBSS, pH 7.4/7.4): 4.53 ×10⁻⁶ cm/s
Papp B→A at 120 min, 10 μM ([3]; Caco-2, pH 7.4, Mean Papp B2A, HBSS/HBSS, pH 7.4/7.4): 23.2 ×10⁻⁶ cm/s
Papp A→B at 120 min, 10 μM ([3]; Caco-2, pH 7.4, Papp A2B Replicate 1, HBSS/HBSS, pH 7.4/7.4): 3.77 ×10⁻⁶ cm/s
Papp A→B at 120 min, 10 μM ([3]; Caco-2, pH 7.4, Papp A2B Replicate 2, HBSS/HBSS, pH 7.4/7.4): 5.28 ×10⁻⁶ cm/s
Papp B→A at 120 min, 10 μM ([3]; Caco-2, pH 7.4, Papp B2A Replicate 1, HBSS/HBSS, pH 7.4/7.4): 22 ×10⁻⁶ cm/s
Papp B→A at 120 min, 10 μM ([3]; Caco-2, pH 7.4, Papp B2A Replicate 2, HBSS/HBSS, pH 7.4/7.4): 24.4 ×10⁻⁶ cm/s
SMILES: Cc1[nH]nc(-c2ccc(O)c(C)c2O)c1-c1nc2ccccc2s1 [Compound E12]
functional activity in SIA (result in words) (DAOY cells; DAOY, bFGF-induced, 1, 5 and 10 µM): comparable inhibition of invasion
toxicity in the MTT assay (result in words) [4]: moderate toxicity
MEC ([4]; 72h, 3 replicas, NR = No response (Summary sheet)): 15.6 µM
MTT (MEC) Minimum effective concentration ([4]; 72 h, summary sheet): 15.6 µM
